From ChEMBL document CHEMBL5614401 (Eur J Med Chem, 2024)
The source made the active and inactive calls. The calls are words filed in the database; no cut-off is given here.

Assays:
[1] = target: T1, Solute carrier family 22 member 12 (Homo sapiens, UniProt Q96S37); test: Inhibition of human URAT1 transfected in HEK293 cells by measuring 14C-uric acid uptake at 5 uM preincubated for 30 mins followed by 14--uric acid addition and measured after 15 mins by liquid scintillation counter analysis relative to control; type: cell-based; conditions: 0.25 h, time 45 min
T1 sequence (Q96S37 whole entry): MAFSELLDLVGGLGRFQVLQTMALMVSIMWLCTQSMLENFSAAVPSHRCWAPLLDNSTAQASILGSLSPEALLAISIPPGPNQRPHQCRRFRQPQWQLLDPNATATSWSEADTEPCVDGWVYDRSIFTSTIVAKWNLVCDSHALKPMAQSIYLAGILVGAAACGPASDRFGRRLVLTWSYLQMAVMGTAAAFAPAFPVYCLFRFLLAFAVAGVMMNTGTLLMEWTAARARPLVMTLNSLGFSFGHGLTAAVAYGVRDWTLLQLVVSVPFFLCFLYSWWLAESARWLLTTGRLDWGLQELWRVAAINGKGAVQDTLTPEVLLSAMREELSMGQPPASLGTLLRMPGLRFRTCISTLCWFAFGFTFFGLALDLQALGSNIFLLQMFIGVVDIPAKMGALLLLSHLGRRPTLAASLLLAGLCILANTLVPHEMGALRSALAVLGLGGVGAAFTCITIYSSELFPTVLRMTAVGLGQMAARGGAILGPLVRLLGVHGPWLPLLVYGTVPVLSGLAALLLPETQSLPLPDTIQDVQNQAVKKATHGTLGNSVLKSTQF

[2] = target: T1, Solute carrier family 22 member 12; test: Inhibition of human URAT1 transfected in HEK293 cells by measuring 14C-uric acid uptake preincubated for 30 mins followed by 14--uric acid addition and measured after 15 mins by liquid scintillation counter analysis; type: cell-based
[3] = test system: Mus musculus; test: Anti-hyperuricemic activity against potassium oxonate-induced male Kunming mouse model assessed as alleviation of shrinkage in kidney at 10 mg/kg, po via gavage administered 1 hr post-potassium oxonate challenge and measured after 7 days on day 7 potassium oxonate injected after 12 hrs fasting and measured followed by 1.5 hrs of compound administration by H and E staining based analysis; type: functional, organism-based; conditions: time 7.0 day
[4] = test system: Mus musculus; test: Anti-hyperuricemic activity against potassium oxonate-induced male Kunming mouse model assessed as increase in urine uric acid level at 10 mg/kg, po via gavage administered 1 hr post-potassium oxonate challenge and measured after 7 days on day 7 potassium oxonate injected after 12 hrs fasting and measured followed by 1.5 hrs of compound administration (reference value: 481.6 microM); type: functional
[5] = test system: Mus musculus; test: Anti-hyperuricemic activity against potassium oxonate-induced male Kunming mouse model assessed as alleviation of casts formation in kidney at 10 mg/kg, po via gavage administered 1 hr post-potassium oxonate challenge and measured after 7 days on day 7 potassium oxonate injected after 12 hrs fasting and measured followed by 1.5 hrs of compound administration by H and E staining based analysis; type: functional, organism-based; conditions: time 7.0 day
[6] = test system: Mus musculus; test: Anti-hyperuricemic activity against potassium oxonate-induced male Kunming mouse model assessed as alleviation of glomerular ischemia in kidney at 10 mg/kg, po via gavage administered 1 hr post-potassium oxonate challenge and measured after 7 days on day 7 potassium oxonate injected after 12 hrs fasting and measured followed by 1.5 hrs of compound administration by H and E staining based analysis; type: functional, organism-based; conditions: time 7.0 day
[7] = Cmax in male Sprague-Dawley rat at 10 mg/kg, po measured after 24 hrs by LC-MS/MS analysis; type: ADME, organism-based; conditions: in vivo
[8] = test system: HK-2; test: Cytotoxicity against human HK-2 cells assessed as cell viability at 100 uM incubated for 48 hrs by MTT assay; type: toxicity, cell-based; conditions: hk-2, 48 h
[9] = Renal toxicity in potassium oxonate-induced male Kunming mouse model assessed as reduction in CR level in serum at 10 mg/kg,po via gavage administered 1 hr post-potassium oxonate challenge and measured after 7 days on day 7 potassium oxonate injected after 12 hrs fasting and measured followed by 1.5 hrs of compound administration by biochemical analyzer; type: organism-based; conditions: in vivo, 168 h, time 7 day
[10] = target: T2, Solute carrier family 2, facilitated glucose transporter member 9 (Homo sapiens) (UniProt Q9NRM0); test: Inhibition of GLUT9 (unknown origin) overexpressed in uric acid-induced HEK293 cells at 25 uM by patch clamp analysis relative to control; type: cell-based
T2 sequence (whole entry): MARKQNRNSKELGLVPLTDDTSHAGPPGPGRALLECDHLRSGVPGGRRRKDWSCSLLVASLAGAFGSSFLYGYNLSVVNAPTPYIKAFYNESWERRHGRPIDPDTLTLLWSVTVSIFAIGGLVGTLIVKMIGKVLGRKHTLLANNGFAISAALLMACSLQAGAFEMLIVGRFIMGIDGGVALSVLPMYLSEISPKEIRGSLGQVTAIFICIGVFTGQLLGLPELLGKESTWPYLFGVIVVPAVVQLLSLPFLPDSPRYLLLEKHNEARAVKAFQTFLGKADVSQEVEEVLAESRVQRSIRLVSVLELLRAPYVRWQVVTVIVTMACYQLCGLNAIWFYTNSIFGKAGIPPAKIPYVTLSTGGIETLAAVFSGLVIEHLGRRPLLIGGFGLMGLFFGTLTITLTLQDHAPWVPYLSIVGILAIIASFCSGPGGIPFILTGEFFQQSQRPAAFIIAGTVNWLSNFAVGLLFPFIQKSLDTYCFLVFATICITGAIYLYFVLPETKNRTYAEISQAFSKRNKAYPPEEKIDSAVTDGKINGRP

[11] = Renal toxicity in potassium oxonate-induced male Kunming mouse model assessed as reduction in BUN level in serum at 10 mg/kg,po via gavage administered 1 hr post-potassium oxonate challenge and measured after 7 days on day 7 potassium oxonate injected after 12 hrs fasting and measured followed by 1.5 hrs of compound administration by biochemical analyzer; type: organism-based; conditions: in vivo, 168 h, time 7 day
[12] = Tmax in male Sprague-Dawley rat at 10 mg/kg, po measured after 24 hrs by LC-MS/MS analysis; type: ADME, organism-based; conditions: in vivo
[13] = test system: Mus musculus; test: Anti-hyperuricemic activity against potassium oxonate-induced male Kunming mouse model assessed as reduction in serum uric acid level at 10 mg/kg, po via gavage administered 1 hr post-potassium oxonate challenge and measured after 7 days on day 7 potassium oxonate injected after 12 hrs fasting and measured followed by 1.5 hrs of compound administration; type: functional; conditions: time 7 day
[14] = test system: HK-2; test: Cytotoxicity against human HK-2 cells assessed as cell viability at <100 uM incubated for 24 hrs by MTT assay; type: toxicity, cell-based; conditions: hk-2, 24 h
[15] = MRT (0 to infinity) in male Sprague-Dawley rat at 10 mg/kg, po measured after 24 hrs by LC-MS/MS analysis; type: ADME, organism-based; conditions: in vivo
[16] = Half life in male Sprague-Dawley rat at 10 mg/kg, po measured after 24 hrs by LC-MS/MS analysis; type: ADME, organism-based; conditions: in vivo
[17] = AUC (0 to infinity) in male Sprague-Dawley rat at 10 mg/kg, po measured after 24 hrs by LC-MS/MS analysis; type: ADME, organism-based; conditions: in vivo
[18] = test system: Mus musculus; test: Anti-hyperuricemic activity against potassium oxonate-induced male Kunming mouse model assessed as alleviation of renal tubule dilatation at 10 mg/kg, po via gavage administered 1 hr post-potassium oxonate challenge and measured after 7 days on day 7 potassium oxonate injected after 12 hrs fasting and measured followed by 1.5 hrs of compound administration by H and E staining based analysis; type: functional, organism-based; conditions: time 7.0 day
[19] = Renal toxicity in potassium oxonate-induced male Kunming mouse model assessed as effect on kidney damage at 10 mg/kg,po via gavage administered 1 hr post-potassium oxonate challenge and measured after 7 days on day 7 potassium oxonate injected after 12 hrs fasting and measured followed by 1.5 hrs of compound administration; type: organism-based; conditions: in vivo, 168 h, time 7 day

CC(C)=CCc1c(O)ccc2c1OC(c1cccc(F)c1)CC2=O (stereo not given)
inhibition at 5 µM [1]: 22.7%

O=C(O)/C=C/Cc1cccc2c1OC(c1cccs1)CC2=O (stereo not given)
IC50 [2]: 2500 nM

C/C(=C\Cc1c(O)ccc2c1OC(c1ccc(O)cc1)CC2=O)C(=O)O (stereo not given)
IC50 [2]: 2110 nM

C/C(=C\Cc1cccc2c1OC(c1ccsc1)CC2=O)C(=O)O (stereo not given)
IC50 [2]: 2180 nM

C/C(=C\Cc1cccc2c1OC(c1cc(Br)cs1)CC2=O)C(=O)O (stereo not given)
IC50 [2]: 980 nM

CC(C)=CCc1c(O)ccc2c1OC(c1ccc(Cl)cc1)CC2=O (stereo not given)
inhibition at 5 µM [1]: 11.3%

CC(C)=CCc1c(O)ccc2c1OC(c1ccc(Br)cc1)CC2=O (stereo not given)
inhibition at 5 µM [1]: 32.2%

O=C(O)/C=C/Cc1cccc2c1OC(c1cc3ccccc3s1)CC2=O (stereo not given)
IC50 [2]: 1890 nM

O=C(O)/C=C/Cc1cccc2c1OC(c1ccc(O)cc1)CC2=O (stereo not given)
IC50 [2]: 4240 nM

C/C(=C\Cc1c(O)ccc2c1OC(c1ccc(Br)c3ccccc13)CC2=O)C(=O)O (stereo not given)
Activity [3]: Active | Activity ([4]; time 7.0 day): Active | Activity [5]: Active | Activity [6]: Active | Cmax [7]: 1380 ng/mL | Activity [8]: Non-Toxic | Activity [9]: Non-Toxic | inhibition [10]: 8.21% | IC50 [2]: 190 nM | Activity [11]: Non-Toxic | Tmax [12]: 1.5 h | Activity [13]: 397.87 µM | Activity [14]: Toxic | MRT inf [15]: 7.54 h | half-life [16]: 4.66 h | AUC(0-inf) [17]: 8270 ng·h/mL | Activity [18]: Active | Activity [19]: Non-Toxic

C/C(=C\Cc1c(O)ccc2c1OC(c1ccc(Br)cc1)CC2=O)C(=O)O (stereo not given)
IC50 [2]: 830 nM

O=C(O)C/C=C/Cc1c(O)ccc2c1OC(c1csc3ccccc13)CC2=O (stereo not given)
IC50 [2]: 650 nM

Cc1ccc2c(c1C/C=C/S(=O)(=O)c1ccccc1)OC(c1ccsc1)CC2=O (stereo not given)
IC50 [2]: 4430 nM

O=C(O)/C=C/Cc1c(O)ccc2c1OC(c1cccs1)CC2=O (stereo not given)
IC50 [2]: 2180 nM

CC(C)=CCc1c(O)ccc2c1OC(c1ccsc1)CC2=O (stereo not given)
inhibition at 5 µM [1]: 72.3%

CC(C)=CCc1c(O)ccc2c1OC(c1ccc(F)cc1)CC2=O (stereo not given)
inhibition at 5 µM [1]: 4.4%

CC(C)=CCc1c(O)ccc2c1OC(c1cccs1)CC2=O (stereo not given)
inhibition at 5 µM [1]: 19.8%

C/C(=C\Cc1cccc2c1OC(c1csc3ccccc13)CC2=O)C(=O)O (stereo not given)
IC50 [2]: 950 nM

C/C(=C\Cc1cccc2c1OC(c1cccs1)CC2=O)C(=O)O (stereo not given)
Activity [3]: Active | Activity ([4]; time 7 day): 648.21 µM | Activity [5]: Active | Activity [6]: Active | Cmax [7]: 2090 ng/mL | Activity [8]: Non-Toxic | Activity [9]: Non-Toxic | inhibition [10]: 22.7% | IC50 [2]: 860 nM | Activity [11]: Non-Toxic | Tmax [12]: 0.83 h | Activity [13]: 317.1 µM | Activity [14]: Toxic | MRT inf [15]: 11.4 h | half-life [16]: 5.14 h | AUC(0-inf) [17]: 14700 ng·h/mL | Activity [18]: Active | Activity [19]: Non-Toxic

C/C(=C\Cc1c(O)ccc2c1OC(c1ccc(Cl)cc1)CC2=O)C(=O)O (stereo not given)
IC50 [2]: 2860 nM

O=C(O)/C=C/Cc1c(O)ccc2c1OC(c1ccc(O)cc1)CC2=O (stereo not given)
IC50 [2]: 3020 nM

CC(C)=CCc1c(O)ccc2c1OC(c1csc3ccccc13)CC2=O (stereo not given)
inhibition at 5 µM [1]: 32%

O=C(O)/C=C/Cc1cccc2c1OC(c1ccsc1)CC2=O (stereo not given)
IC50 [2]: 3590 nM

O=C(O)CCCc1c(O)ccc2c1OC(c1cccs1)CC2=O (stereo not given)
IC50 [2]: 2410 nM

C/C(=C\Cc1cccc2c1OC(c1cc3ccccc3s1)CC2=O)C(=O)O (stereo not given)
IC50 [2]: 1640 nM

CC(C)=CCc1c(O)ccc2c1OC(c1cc3ccccc3s1)CC2=O (stereo not given)
inhibition at 5 µM [1]: 13.4%

C/C(=C\Cc1cccc2c1OC(c1ccc(O)cc1)CC2=O)C(=O)O (stereo not given)
IC50 [2]: 2680 nM

C/C(=C\Cc1c(O)ccc2c1OC(c1ccsc1)CC2=O)C(=O)O (stereo not given)
IC50 [2]: 650 nM

O=C(O)CSc1nnc(Br)n1-c1ccc(C2CC2)c2ccccc12
Activity [3]: inactive | Activity ([4]; time 7 day): 696.8 µM | Activity [5]: inactive | Activity [6]: inactive | Activity [9]: Non-Toxic | Activity [11]: Non-Toxic | Activity [13]: 380.14 µM | Activity [18]: inactive | Activity [19]: Non-Toxic

C/C(=C\Cc1c(O)ccc2c1OC(c1csc3ccccc13)CC2=O)C(=O)O (stereo not given)
Activity [3]: Active | Activity ([4]; time 7 day): 599.6 µM | Activity [5]: Active | Activity [6]: Active | Activity [8]: Non-Toxic | Activity [9]: Non-Toxic | inhibition [10]: 8.33% | IC50 [2]: 230 nM | Activity [11]: Non-Toxic | Activity [13]: 392.02 µM | Activity [14]: Toxic | Activity [18]: Active | Activity [19]: Non-Toxic

O=C(O)/C=C/Cc1cccc2c1OC(c1ccc(Br)c3ccccc13)CC2=O (stereo not given)
IC50 [2]: 730 nM
